Where two headings read alike, the source gives them in different places. Marks after values point to notes of the source that are not given here.
Assays:
Assay type in all cases: in vivo
[1] = test system: Phakopsora pachyrhizi (the causal agent of Asian soybean rust); test: Test A: preventive spray on soybean seedlings, Asian soybean rust, visual disease rating; settings: for pest or weed control at 10 µg/mL: read-out: Test A disease control rating
Procedure, shortened: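 Preventive test: soybean seedlings received a run-off spray of compound suspended at the set ppm in 50/50 acetone/water plus 250 ppm PEG400, and one day later a P. pachyrhizi spore inoculum. Visual scoring (0 none to 100 full disease control) followed 24 h saturated incubation and 8 days' growth chamber, both at 22° C.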

[2] = test system: Zymoseptoria tritici (the causal agent of wheat leaf blotch); test: Test B: preventive spray on wheat seedlings, wheat leaf blotch, visual disease rating; settings: for pest or weed control at 100 µg/mL: read-out: Test B disease control rating
Excerpt: General protocol for preparing test suspensions for Tests A-D: the test compounds were first dissolved in acetone in an amount equal to 3% of the final volume and then suspended at the desired concentration (in ppm) in acetone and purified water (50/50 mix by volume) containing 250 ppm of the surfactant PEG400 (polyhydric alcohol esters). The resulting test suspensions were then used in Tests A-D.
The test suspension was sprayed to the point of run-off on wheat seedlings. The following day the seedlings were inoculated with a spore suspension of Zymoseptoria tritici (the causal agent of wheat leaf blotch) and incubated in a saturated atmosphere at 24° C. for 48 h, and then moved to a growth chamber at 20° C. for 17 days, after which time visual disease ratings were made.
The test results for Tests A-C presented in Table A below for compounds of Formula 1 illustrate the fungicidal activity of component (a) contributing to the plant disease control utility of compositions comprising component (a) in combination with component (b) according to the present invention. In the Table, a rating of 100 indicates 100% disease control and a rating of 0 indicates no disease control (relative to the controls). A dash (-) indicates the compound was not tested. The test suspensions were sprayed at the concentration listed in the column “Rate in ppm”, unless otherwise indicated. An asterisk “*” next to the rating indicates a 250 ppm test suspension was used, a double asterisk “**” next to the rating indicates a 100 ppm test suspension was used, and a triple asterisk “***” next to the rating indicates a 50 ppm test suspension was used.

[3] = test system: Puccinia recondita f. sp. tritici (the causal agent of wheat leaf rust); test: Test C: preventive spray on wheat seedlings, wheat leaf rust, visual disease rating; settings: for pest or weed control at 10 µg/mL: read-out: Test C disease control rating
Procedure, shortened: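 Wheat seedlings sprayed to run-off with compound in acetone/water (50/50) with 250 ppm PEG400, then inoculated with spores the following day. After 24 h saturated humidity at 20° C. and 6 days in growth chamber at 20° C., disease rated visually as % control relative to untreated controls.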

[4] = test suspension 250 ppm, wheat seedlings
[5] = Phakopsora pachyrhizi, 216 h, test suspension 10 ppm, soybean seedlings, 100 = 100% disease control, 0 = no control
[6] = Zymoseptoria tritici, 456 h, test suspension 100 ppm (** next to rating), wheat seedlings
[7] = Puccinia recondita, 168 h, test suspension 10 ppm, wheat seedlings
[8] = Phakopsora pachyrhizi, 216 h, test suspension 250 ppm, soybean seedlings
[9] = Zymoseptoria tritici, 456 h, test suspension 250 ppm, wheat seedlings
[10] = Puccinia recondita, 168 h, test suspension 250 ppm, wheat seedlings
[11] = test suspension 10 ppm, soybean seedlings, 100 = 100% disease control, 0 = no control
[12] = test suspension 10 ppm, wheat seedlings
[13] = Phakopsora pachyrhizi, 216 h, 10 ppm test suspension, soybean seedlings, 100 = 100% disease control, 0 = no control
[14] = Zymoseptoria tritici, 456 h, 250 ppm test suspension, wheat seedlings, 100 = 100% disease control
[15] = Puccinia recondita, 168 h, 10 ppm test suspension, wheat seedlings, 100 = 100% disease control, 0 = no control
[16] = 10 ppm test suspension, soybean seedlings, 100 = 100% disease control, 0 = no control
[17] = 250 ppm test suspension, wheat seedlings, 100 = 100% disease control
[18] = 10 ppm test suspension, wheat seedlings, 100 = 100% disease control, 0 = no control

ON=Cc1cnn(Cc2ccc(-c3noc(C(F)(F)F)n3)cc2)c1 (mixture of isomers) [compound 20]
Test A disease control rating ([1]; test suspension 250 ppm, soybean seedlings): 100% | Test B disease control rating [2, 4]: 99% | Test C disease control rating [3, 4]: 100%

CCOC(=O)c1cnn(C(C)c2ccc(-c3noc(C(F)(F)F)n3)cc2)c1 (stereo not drawn) [Compound 2, ethyl 1-[1-[4-[5-(trifluoromethyl)-1,2,4-oxadiazol-3-yl]phenyl]ethyl]-1H-pyrazole-4-carboxylate]
pest or weed control at 10 µg/mL [1, 5]: 100% | pest or weed control at 100 µg/mL [2, 6]: 98% | pest or weed control at 10 µg/mL [3, 7]: 99%

CN(C)C(=O)C1=NOC(Cc2ccc(-c3noc(C(F)(F)F)n3)cc2)C1 (stereo not drawn) [Compound 12, 4,5-dihydro-N,N-dimethyl-5-[[4-[5-(trifluoromethyl)-1,2,4-oxadiazol-3-yl]phenyl]methyl]-3-isoxazolecarboxamide]
pest or weed control at 255 µg/mL ([1]; Phakopsora pachyrhizi, 216 h, test suspension 255 ppm, soybean seedlings): 100% | pest or weed control at 255 µg/mL ([2]; Zymoseptoria tritici, 456 h, test suspension 255 ppm, wheat seedlings): 98% | pest or weed control at 255 µg/mL ([3]; Puccinia recondita, 168 h, test suspension 255 ppm, wheat seedlings): 100%

N#CC(Nc1ccccc1)c1ccc(-c2noc(C(F)(F)F)n2)cc1 (stereo not drawn) [Compound 13, α-(phenylamino)-4-[5-(trifluoromethyl)-1,2,4-oxadiazol-3-yl]benzeneacetonitrile]
pest or weed control at 250 µg/mL [1, 8]: 100% | pest or weed control at 250 µg/mL [2, 9]: 85% | pest or weed control at 250 µg/mL [3, 10]: 100%

COC(=O)c1cnn(Cc2ccc(-c3noc(C(F)(F)F)n3)cc2)c1 [Compound 21, methyl 1-[[4-[5-(trifluoromethyl)-1,2,4-oxadiazol-3-yl]phenyl]methyl]-1H-pyrazole-4-carboxylate]
pest or weed control at 10 µg/mL ([1]; Phakopsora pachyrhizi, 216 h): 100% | pest or weed control at 100 µg/mL ([2]; Zymoseptoria tritici, 456 h): 97% | pest or weed control at 10 µg/mL ([3]; Puccinia recondita, 168 h): 100%

N#CCOC(=O)c1cnn(Cc2ccc(-c3noc(C(F)(F)F)n3)cc2)c1 [Compound 57, cyanomethyl 1-[[4-[5-(trifluoromethyl)-1,2,4-oxadiazol-3-yl]phenyl]methyl]-1H-pyrazole-4-carboxylate]
pest or weed control at 10 µg/mL [1, 5]: 100% | pest or weed control at 100 µg/mL [2, 6]: 99% | pest or weed control at 10 µg/mL [3, 7]: 100%

FC(F)(F)c1nc(-c2ccc(Cn3cc(Br)cn3)s2)no1 [Compound 71, 3-[5-[(4-bromo-1H-pyrazol-1-yl)methyl]-2-thienyl]-5-(trifluoromethyl)-1,2,4-oxadiazole]
pest or weed control at 250 µg/mL [1, 8]: 100% | pest or weed control at 250 µg/mL [2, 9]: 36% | pest or weed control at 250 µg/mL [3, 10]: 100%

CCOC(=O)c1cnn(Cc2ccc(-c3noc(C(F)(F)F)n3)cc2)c1 [Compound 83, ethyl 1-[[4-[5-(trifluoromethyl)-1,2,4-oxadiazol-3-yl]phenyl]methyl]-1H-pyrazole-4-carboxylate]
pest or weed control at 250 µg/mL [1, 8]: 100% | pest or weed control at 250 µg/mL [2, 9]: 79% | pest or weed control at 250 µg/mL [3, 10]: 100%

FC(F)(F)c1nc(-c2ccc(Cn3ccc(-c4ccccc4)n3)cc2)no1 [Compound 85]
Test A disease control rating ([1]; test suspension 50 ppm, soybean seedlings): 100*** % | Test B disease control rating [2, 4]: 9% | Test C disease control rating [3, 4]: 100%

O=C1c2ccccc2C(=O)N1Cc1ccc(-c2noc(C(F)(F)F)n2)cc1 [Compound 90, 2-[[4-[5-(trifluoromethyl)-1,2,4-oxadiazol-3-yl]phenyl]methyl]-1H-isoindole-1,3(2H)-dione]
pest or weed control at 250 µg/mL [1, 8]: 100% | pest or weed control at 250 µg/mL [2, 9]: 33% | pest or weed control at 250 µg/mL [3, 10]: 99%

N#Cc1cnn(Cc2ccc(-c3noc(C(F)(F)F)n3)cc2)c1 [Compound 95, 1-[[4-[5-(trifluoromethyl)-1,2,4-oxadiazol-3-yl]phenyl]methyl]-1H-pyrazole-4-carbonitrile]
pest or weed control at 250 µg/mL [1, 8]: 100% | pest or weed control at 250 µg/mL [2, 9]: 87% | pest or weed control at 250 µg/mL [3, 10]: 100%

O=c1cnc2ccccc2n1Cc1ccc(-c2noc(C(F)(F)F)n2)cc1 [Compound 158, 1-[[4-[5-(trifluoromethyl)-1,2,4-oxadiazol-3-yl]phenyl]methyl]-2(1H)-quinoxalinone]
pest or weed control at 270 µg/mL ([1]; Phakopsora pachyrhizi, 216 h, test suspension 270 ppm, soybean seedlings): 100% | pest or weed control at 270 µg/mL ([2]; Zymoseptoria tritici, 456 h, test suspension 270 ppm, wheat seedlings): 90% | pest or weed control at 270 µg/mL ([3]; Puccinia recondita, 168 h, test suspension 270 ppm, wheat seedlings): 100%

Cn1c(=O)n(Cc2ccc(-c3noc(C(F)(F)F)n3)cc2)c2ccccc21 [Compound 159, 1,3-dihydro-1-methyl-3-[[4-[5-(trifluoromethyl)-1,2,4-oxadiazol-3-yl]phenyl]methyl]-2H-benzimidazol-2-one]
pest or weed control at 260 µg/mL ([1]; Phakopsora pachyrhizi, 216 h, test suspension 260 ppm, soybean seedlings): 100% | pest or weed control at 260 µg/mL ([2]; Zymoseptoria tritici, 456 h, test suspension 260 ppm, wheat seedlings): 87% | pest or weed control at 260 µg/mL ([3]; Puccinia recondita, 168 h, test suspension 260 ppm, wheat seedlings): 100%

CCOC(=O)c1cnn(C(C)c2ccc(-c3noc(C(F)(F)F)n3)s2)c1 (stereo not drawn) [Compound 192]
Test A disease control rating [1, 11]: 100% | Test B disease control rating [2, 4]: 99* % | Test C disease control rating [3, 12]: 100%

CCCOC(=O)c1cnn(Cc2ccc(-c3noc(C(F)(F)F)n3)s2)c1 [Compound 198, propyl 1-[[5-[5-(trifluoromethyl)-1,2,4-oxadiazol-3-yl]-2-thienyl]methyl]-1H-pyrazole-4-carboxylate]
pest or weed control at 10 µg/mL [1, 5]: 100% | pest or weed control at 100 µg/mL [2, 6]: 94% | pest or weed control at 10 µg/mL [3, 7]: 99%

O=C(c1coc(Cc2ccc(-c3noc(C(F)(F)F)n3)cc2)n1)N1CCOCC1 [Compound 263]
Test A disease control rating [1, 11]: 100% | Test B disease control rating [2, 4]: 95* % | Test C disease control rating [3, 12]: 94%

COCCNC(=O)c1ccc(Cc2ccc(-c3noc(C(F)(F)F)n3)cc2)cc1 [Compound 282]
Test A disease control rating [1, 11]: 100% | Test B disease control rating [2, 4]: 94* % | Test C disease control rating [3, 12]: 97%

FC(F)(F)c1nc(-c2ccc(OCn3cncn3)cc2)no1 [Compound 337]
Test A disease control rating [1, 11]: 99% | Test B disease control rating [2, 4]: 78* % | Test C disease control rating [3, 12]: 82%

FC(F)(F)c1nc(-c2ccc(OCc3cccnc3)cc2)no1 [Compound 353]
Test A disease control rating [1, 11]: 0% | Test B disease control rating [2, 4]: 73* % | Test C disease control rating [3, 12]: 0%

O=C(NCCF)c1coc(Cc2ccc(-c3noc(C(F)(F)F)n3)cc2)n1 [Compound 400, N-(2-fluoroethyl)-2-[[4-[5-(trifluoromethyl)-1,2,4-oxadiazol-3-yl]phenyl]methyl]-4-oxazolecarboxamide]
pest or weed control at 10 ppm [1, 13]: 100% | pest or weed control at 250 ppm [2, 14]: 99% | pest or weed control at 10 ppm [3, 15]: 100%

O=C(NCCOC(F)(F)F)c1coc(Cc2ccc(-c3noc(C(F)(F)F)n3)cc2)n1 [Compound 401, N-[2-(trifluoromethoxy)ethyl]-2-[[4-[5-(trifluoromethyl)-1,2,4-oxadiazol-3-yl]phenyl]methyl]-4-oxazolecarboxamide]
pest or weed control at 10 ppm [1, 13]: 100% | pest or weed control at 250 ppm [2, 14]: 77% | pest or weed control at 10 ppm [3, 15]: 99%

O=C(c1coc(Cc2ccc(-c3noc(C(F)(F)F)n3)cc2)n1)N1CCC(F)(F)C1 [Compound 402, (3,3-difluoro-1-pyrrolidinyl)[2-[[4-[5-(trifluoromethyl)-1,2,4-oxadiazol-3-yl]phenyl]methyl]-4-oxazolyl]methanone]
pest or weed control at 10 ppm [1, 13]: 100% | pest or weed control at 250 ppm [2, 14]: 96% | pest or weed control at 10 ppm [3, 15]: 90%

COC(=O)c1coc(COc2ccc(-c3noc(C(F)(F)F)n3)cc2)n1 [Compound 403, methyl 2-[[4-[5-(trifluoromethyl)-1,2,4-oxadiazol-3-yl]¬phenoxy]¬methyl]oxazole-4-carboxylate]
Test A disease control rating [1, 16]: 60% | Test B disease control rating [2, 17]: 47* % | Test C disease control rating [3, 18]: 0%

CCOC(=O)c1cccc(Cc2ccc(-c3noc(C(F)(F)F)n3)cc2)c1 [Compound 454]
Test A disease control rating [1, 16]: 100% | Test B disease control rating [2, 17]: 47* % | Test C disease control rating [3, 18]: 0%

From US20240090503A1, “FUNGICIDAL OXADIAZOLES AND THEIR MIXTURES” (FMC CORPORATION, priority 2020, published 2024)
